Laboratory results taken from EP4691498A1, “ANTIBODY-DRUG CONJUGATE, AND PREPARATION METHOD THEREFOR AND USE THEREOF” (Chengdu Scimount Pharmatech Co., Ltd., priority 2023, dated 2024).
Read-outs that look alike come from different tables or passages of the source.

Experiments:
[1] = Safety evaluation, repeated intravenous infusion (HNSTD); format: in vivo; settings: monkey HNSTD expressed as eribulin amount
Method: Four groups were set up for this test, namely the vehicle control group and SMP-656 groups with different doses (5, 10, 15 mg/kg), with 10 animals in each group, including 5 females and 5 males. Monkeys in each group were intravenously infused (for 30 min) with SMP-656 at doses of 5, 10 and 15 mg/kg at a volume of 10 mL/kg, once every three weeks, for 3 administrations (total 9 weeks), followed by a 4-week recovery period.
During the test, detailed clinical observations, and body weight and food intake monitoring were performed once a week. Clinical pathology examinations (including: hematology, coagulation, serum biochemistry, and urine analysis) were performed on Day 7, Day 50 and Day 71 respectively. The observation of irritation at the administration site was conducted once a week during the administration period, 2-4 h after administration on the administration day, and once a week during the recovery period. For animals with symptoms, the observation frequency was increased to daily until the symptoms disappeared. All surviving animals underwent accompanying toxicokinetic testing on Day 1 and Day 22. At the end of the administration period and the end of the recovery period, all surviving animals were euthanized as planned, dissected and grossly observed, and tissues and organs were weighed or fixed and preserved for pathological examination.

[2] = highest non-severe toxic dose; from literature references 1 and 2; cited from earlier work
[3] = highest non-severe toxic dose; from literature references 1 and 2; cited from earlier work; remark: listed apart in the source

| Molecule | Equivalent to eribulin amount [1] [mg/kg] | Monkey HNSTD (mg/kg) [2] | Monkey HNSTD (mg/kg) [3] |
| --- | --- | --- | --- |
| C=C1C[C@@H]2CC[C@@]34C[C@H]5O[C@H]6[C@@H](O3)[C@H]3O[C@H](CC[C@@H]3O[C@H]6[C@H]5O4)CC(=O)C[C@@H]3[C@@H](OC)[C@@H](C[C@H](O)CN)O[C@H]3C[C@H]3O[C@@H](CC[C@@H]1O2)C[C@@H](C)C3=C [Eribulin] | 0.03 | 0.03^2 mg/kg |  |
| MORAb-202: ADC with Eribulin as a small-molecule toxin, set DAR of 4 | 0.12 |  | 6^1 mg/kg |
